Results reported in patent US10131652B2, “Pyrimidinyloxy benzene derivatives as herbicides” (E. I. DU PONT DE NEMOURS AND COMPANY, priority 2014, dated 2018).
Where two headings read alike, the source gives them in different places.

Legend:
Experiment in all cases: Test D pre-/postemergence plant response
Format in all cases: in vivo
corn (Zea mays) = conditions: Zea mays; for Corn plant response rating (crop injury, 0 = no effect, 100 = complete kill) at 62 g/ha: 62 g ai/ha
Method in brief: (§1)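 Seeds were planted in a loam and sand blend and sprayed preemergence. In parallel, seedlings grown in peat moss/vermiculite medium were sprayed postemergence at 2 to 18 cm height. Both used a surfactant-containing non-phytotoxic solvent. Greenhouse ratings at 13 to 15 days used a 0–100 control scale.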

[1] = system: pigweed (Amaranthus retroflexus); conditions: Amaranthus retroflexus; for pest or weed control at 16 g/ha: 16 g ai/ha; for pest or weed control at 31 g/ha: 31 g ai/ha; for pest or weed control at 62 g/ha: 62 g ai/ha; for pest or weed control at 125 g/ha: 125 g ai/ha
Method in brief: as §1

[2] = system: barnyardgrass (Echinochloa crus-galli); conditions: Echinochloa crus-galli; for pest or weed control at 16 g/ha: 16 g ai/ha; for pest or weed control at 31 g/ha: 31 g ai/ha; for pest or weed control at 62 g/ha: 62 g ai/ha; for pest or weed control at 125 g/ha: 125 g ai/ha
Method in brief: as §1

[3] = system: large (Lg) crabgrass (Digitaria sanguinalis); conditions: Digitaria sanguinalis; for pest or weed control at 16 g/ha: 16 g ai/ha; for pest or weed control at 31 g/ha: 31 g ai/ha; for pest or weed control at 62 g/ha: 62 g ai/ha; for pest or weed control at 125 g/ha: 125 g ai/ha
Method in brief: as §1

[4] = system: oilseed rape (Brassica napus); conditions: Brassica napus; for plant injury at 16 g/ha: 16 g ai/ha; for plant injury at 31 g/ha: 31 g ai/ha; for plant injury at 62 g/ha: 62 g ai/ha; for plant injury at 125 g/ha: 125 g ai/ha
Method in brief: as §1

[5] = system: yellow nutsedge (Cyperus esculentus); conditions: Cyperus, post-emergence, Postemergence
Method in brief: as §1

[6] = pre-emergence, Preemergence, scale 0 to 100 (0 no effect, 100 complete control), read-out: Plant response rating, Pigweed
[7] = post-emergence, Postemergence, scale 0 to 100, 0 no effect, 100 complete control, read-out: Plant response rating, Barnyardgrass
[8] = pre-emergence, Preemergence, scale 0 to 100 (0 no effect, 100 complete control), read-out: Plant response rating, Barnyardgrass
[9] = post-emergence, Postemergence, scale 0 to 100, 0 no effect, 100 complete control, read-out: Plant response rating, Crabgrass, Large
[10] = pre-emergence, Preemergence, scale 0 to 100 (0 no effect, 100 complete control), read-out: Plant response rating, Crabgrass, Large
[11] = pre-emergence, Preemergence, scale 0 to 100 (0 no effect, 100 complete control), read-out: Plant response rating, Oilseed Rape

FC(F)(F)c1cc(-c2ccccc2Oc2ncc(Cl)cn2)no1 [Compound 200, 5-chloro-2-[2-[5-(trifluoromethyl)-3-isoxazolyl]phenoxy]pyrimidine]
plant injury at 16 g/ha (corn (Zea mays); post-emergence, Postemergence, 16 g ai/ha, read-out: Plant response rating (scale 0 to 100), Corn): 5%
plant injury at 31 g/ha (corn (Zea mays); post-emergence, Postemergence, 31 g ai/ha, scale 0 to 100 (0 no effect, 100 complete control), read-out: Corn plant response rating): 5%
Corn plant response rating (crop injury, 0 = no effect, 100 = complete kill) at 62 g/ha (corn (Zea mays); post-emergence, Postemergence, scale 0 to 100, 0 no effect, 100 complete control): 10%
Corn plant response rating (crop injury, 0 = no effect, 100 = complete kill) at 125 g/ha (corn (Zea mays); post-emergence, Postemergence, 125 g ai/ha, scale 0 to 100, 0 no effect, 100 complete control): 15%
plant injury at 125 g/ha (corn (Zea mays); pre-emergence, Preemergence, 125 g ai/ha, read-out: Plant response rating (scale 0 to 100), Corn): 20%
Corn plant response rating (crop injury, 0 = no effect, 100 = complete kill) at 16 g/ha (corn (Zea mays); pre-emergence, Preemergence, 16 g ai/ha, scale 0 to 100 (0 no effect, 100 complete control)): 0%
Corn plant response rating (crop injury, 0 = no effect, 100 = complete kill) at 31 g/ha (corn (Zea mays); pre-emergence, Preemergence, 31 g ai/ha, scale 0 to 100 (0 no effect, 100 complete control)): 0%
Corn plant response rating (crop injury, 0 = no effect, 100 = complete kill) at 62 g/ha (corn (Zea mays); pre-emergence, Preemergence, scale 0 to 100 (0 no effect, 100 complete control)): 10%
pest or weed control at 16 g/ha ([1]; post-emergence, Postemergence, read-out: Plant response rating (scale 0 to 100), Pigweed): 90%
pest or weed control at 31 g/ha ([1]; post-emergence, Postemergence, scale 0 to 100 (0 no effect, 100 complete control), read-out: Pigweed plant response rating): 85%
pest or weed control at 62 g/ha ([1]; post-emergence, Postemergence, scale 0 to 100, 0 no effect, 100 complete control, read-out: Pigweed plant response rating): 85%
pest or weed control at 125 g/ha ([1]; post-emergence, Postemergence, scale 0 to 100, 0 no effect, 100 complete control, read-out: Plant response rating, Pigweed): 98%
pest or weed control at 125 g/ha ([1]; pre-emergence, Preemergence, read-out: Plant response rating (scale 0 to 100), Pigweed): 100%
pest or weed control at 16 g/ha [1, 6]: 100%
pest or weed control at 31 g/ha [1, 6]: 100%
pest or weed control at 62 g/ha [1, 6]: 100%
pest or weed control at 16 g/ha ([2]; post-emergence, Postemergence, read-out: Plant response rating (scale 0 to 100), Barnyardgrass): 5%
pest or weed control at 31 g/ha ([2]; post-emergence, Postemergence, scale 0 to 100 (0 no effect, 100 complete control), read-out: Barnyardgrass plant response rating): 10%
pest or weed control at 62 g/ha [2, 7]: 10%
pest or weed control at 125 g/ha [2, 7]: 15%
pest or weed control at 125 g/ha ([2]; pre-emergence, Preemergence, read-out: Plant response rating (scale 0 to 100), Barnyardgrass): 100%
pest or weed control at 16 g/ha [2, 8]: 35%
pest or weed control at 31 g/ha [2, 8]: 95%
pest or weed control at 62 g/ha [2, 8]: 100%
pest or weed control at 16 g/ha ([3]; post-emergence, Postemergence, read-out: Plant response rating (scale 0 to 100), Crabgrass, Large): 10%
pest or weed control at 31 g/ha ([3]; post-emergence, Postemergence, scale 0 to 100 (0 no effect, 100 complete control), read-out: Crabgrass, Large plant response rating): 10%
pest or weed control at 62 g/ha [3, 9]: 25%
pest or weed control at 125 g/ha [3, 9]: 35%
pest or weed control at 125 g/ha ([3]; pre-emergence, Preemergence, read-out: Plant response rating (scale 0 to 100), Crabgrass, Large): 100%
pest or weed control at 16 g/ha [3, 10]: 98%
pest or weed control at 31 g/ha [3, 10]: 100%
pest or weed control at 62 g/ha [3, 10]: 100%
plant injury at 16 g/ha ([4]; post-emergence, Postemergence, read-out: Plant response rating (scale 0 to 100), Oilseed Rape): 70%
plant injury at 31 g/ha ([4]; post-emergence, Postemergence, scale 0 to 100 (0 no effect, 100 complete control), read-out: Oilseed Rape plant response rating): 85%
plant injury at 62 g/ha ([4]; post-emergence, Postemergence, scale 0 to 100, 0 no effect, 100 complete control, read-out: Oilseed Rape plant response rating): 100%
plant injury at 125 g/ha ([4]; post-emergence, Postemergence, scale 0 to 100, 0 no effect, 100 complete control, read-out: Plant response rating, Oilseed Rape): 100%
plant injury at 125 g/ha ([4]; pre-emergence, Preemergence, read-out: Plant response rating (scale 0 to 100), Oilseed Rape): 100%
plant injury at 16 g/ha [4, 11]: 85%
plant injury at 31 g/ha [4, 11]: 100%
plant injury at 62 g/ha [4, 11]: 100%
pest or weed control at 16 g/ha ([5]; 16 g ai/ha, read-out: Plant response rating (scale 0 to 100), Nutsedge, Yellow): 5%
pest or weed control at 31 g/ha ([5]; 31 g ai/ha, scale 0 to 100 (0 no effect, 100 complete control), read-out: Nutsedge, Yellow plant response rating): 5%
pest or weed control at 62 g/ha ([5]; 62 g ai/ha, scale 0 to 100, 0 no effect, 100 complete control, read-out: Nutsedge, Yellow plant response rating): 5%
pest or weed control at 125 g/ha ([5]; 125 g ai/ha, scale 0 to 100, 0 no effect, 100 complete control, read-out: Plant response rating, Nutsedge, Yellow): 15%
